Structures can show the parent of a compound that is named as a salt.
Columns and labels:
respiratory epithelium [1] = assay: LNP protein expression in mouse after single dose of mRNA-LNP by intratracheal delivery (anti-V5 IHC); assay type: in vivo; settings: intratracheal instillation, ~0.7 mpk, NPI-Luc mRNA, core with β-sitosterol for SA23, SA31
Method: (§1) Animals are anesthetized under isoflurane. The tongue is displaced and a small diameter cannula is inserted into the trachea (oropharyngeal route). The cannula tip is passed through the vocal chords, down the trachea so that the tip is very near, but not touching, the carina. Upon placement, 50 μL (mouse) or 200 μL (rat) of formulation is infused into the lungs. After 30 seconds upright, animals are released into a recovery cage and returned to their respective cages once recovered. Trachea, lungs and for the aerosol study nasal cavities, nasopharynx and larynx are collected for analysis. Lungs are inflated with 10% NBF fixative and trachea tied off to maintain inflation. Lungs are removed en bloc with attached trachea, bronchi and lobes. Whole lungs en bloc are fixed in 10% NBF at room temperature for at least 24 hours with a maximum of 48 hours and then removed from fixative and placed in PBS. Samples are immediately sent to be processed for paraffin 5-micron sections and H&E staining. IHC was performed on FFPE sections using the Leica Bond RX autostainer. […] Images were imaged at 20× magnification with the Panoramic 250 Flash III whole slide scanner. Image analysis was completed with Indica Labs HALO image analysis software. […] LNPs were prepared according to Example 2 using NPI-Luc as the mRNA construct. LNPs were delivered to mice by intratracheal instillation for a dose of ˜0.7 mpk. LNP protein expression in respiratory epithelium was evaluated according to sample collection and assay procedures A and B. The results are shown in Table 13a.

respiratory epithelium [2] = assay: LNP protein expression in rat after single dose of mRNA-LNP by intratracheal delivery (anti-V5 IHC); assay type: in vivo; settings: intratracheal instillation, ~1.2 mpk, NPI-Luc mRNA, core with β-sitosterol for SA23
Method: as §1, with “LNPs were delivered to mice by intratracheal instillation for a dose of ˜0.7 mpk.” left out, “13b.” for “13a.”

respiratory epithelium [3] = assay: LNP protein expression in rat after single dose of mRNA-LNP by nose-only aerosol delivery (anti-V5 IHC); assay type: in vivo; settings: LNP per Example 8
Text: Aerosol is generated using a vibrating mesh nebulizer and a defined inlet air flow rate. Aerosol is introduced into the rodent nose-only directed flow exposure chamber by first passing through a mixing chamber before flowing into the exposure tier. Animals are exposed to fresh aerosol at each nose port, which is then exhausted out of the system.
Animals were trained to the nose-only dosing cones for three days prior to initiation of the study. On study day, animals were placed into the dosing cones that were then attached to the aerosol exposure chamber for designated exposure times of 60, 120 or 240 minutes per group for lung doses of 0.4, 0.6 and 1.1 mpk. Animals were monitored continuously throughout the entire exposure and subsequently for any observable adverse reactions. Aerosol concentration (mRNA) and aerodynamic particle size distribution were monitored at the dosing port before and after each dosing occasion to evaluate achieved dose levels and respirable aerosol particle size targets (1-4 μm for rat) respectively.
Trachea, lungs and for the aerosol study nasal cavities, nasopharynx and larynx are collected for analysis. Lungs are inflated with 10% NBF fixative and trachea tied off to maintain inflation. Lungs are removed en bloc with attached trachea, bronchi and lobes. Whole lungs en bloc are fixed in 10% NBF at room temperature for at least 24 hours with a maximum of 48 hours and then removed from fixative and placed in PBS. Samples are immediately sent to be processed for paraffin 5-micron sections and H&E staining.
For the aerosol study, nasal cavities, nasopharynx and larynx were also collected in addition to trachea and lungs.
IHC was performed on FFPE sections using the Leica Bond RX autostainer. NPI-Luc protein expression was detected by anti-V5 tag antibody at a 1:100 dilution. V5 antibody was detected with the Bond Polymer Refine Detection kit followed by hematoxylin and bluing reagent counterstain. Images were imaged at 20× magnification with the Panoramic 250 Flash III whole slide scanner. Image analysis was completed with Indica Labs HALO image analysis software. Trachea, lung and/or nasal cavity images were analyzed to capture total tracheal, bronchial or nasal epithelial cells and data expressed when appropriate as p % V5 positive epithelial cells per total epithelial cells per animal.
LNPs were prepared according to Example 8 using NPI-Luc as the mRNA construct. LNPs were delivered to rats by aerosol delivery using a nose-only aerosol dosing system. LNP protein expression in respiratory epithelium was evaluated according to sample collection and assay procedures A and B. The results are shown in Table 13c. Respiratory epithelium in the nasal cavity, trachea and bronchi were positive for protein expression after aerosol delivery of LNPs.

HeLa cells = assay: Protein expression assay in HeLa cells (One-Glo luciferase, NPI-Luc mRNA); assay type: cell-based, human; settings: 5 h, no serum, 4 wells, sterol amine post-added to LNP core Compound 18, DSPC, Cholesterol plus DMG-PEG 2K (SA3, SA11, SA24, SA26, SA39, SA32), plus Compound 428 (SA4, SA6, SA10, SA16), or plus β-sitosterol and DMG-PEG 2K (SA23, SA29, SA30, SA31)
Method: To evaluate protein expression In Vitro, HeLa cells from ATCC.org (ATCC CCL-2) are used. The cells are cultured in complete Minimum Essential Medium (MEM) and are plated in 96 well Cell Carrier Ultra plate with PDL coated surface (PerkinElmer) prior to running an experiment.
LNPs encapsulating NPI-Luc mRNA were dosed with MEM media in the absence of serum. LNP transfected cell were incubated for 5 h post LNP transfection, the cells were imaged live using Opera Phoenix spinning disk confocal microscope (PerkinElmer). Cells were detected using DAPI (405 nm channel), and image analysis was performed in Harmony 4.9, to quantify the number of cells. After imaging the cells were processed with One-Glo Luciferase assay (Promega) to quantify protein expression. Results were reported in relative luminescence units (RLU) normalized to cells counts.
LNPs were prepared according to Example 2 using NPI-Luc as the mRNA construct. NPI-Luc is a dual read reporter made by adding a 5xV5 tag and a C-myc nuclear localization sequence at the N-terminus of Firefly Luciferase to enhance the signal to noise ratio. Protein expression can be detected using OneGLo assays with luminescence readout or by immunofluorescence with anti-V5 antibodies. Protein expression was evaluated according to the procedure outlined in Example 7. The LNPs are dosed in 4 wells and the average response was reported. For the HeLa assay the luminescence read (RLU) were normalized to cell counts.

[4] = Rat Bronchi (left and right lung)

Structure (SMILES)	Average % V5 positive cells/total cells (respiratory epithelium [1]; Mouse Bronchi (left lung))	Average % V5 positive cells/total cells (respiratory epithelium [1]; Mouse Trachea)	Average % V5 positive cells/total cells (respiratory epithelium [2]; [4])	Average % V5 positive cells/total cells (respiratory epithelium [2]; Rat Trachea)	Average % V5 positive cells/total cells (respiratory epithelium [3]; Rat Bronchi (left and right lung), lung dose 0.4 mpk)	Average % V5 positive cells/total cells (respiratory epithelium [3]; Rat Bronchi (left and right lung), lung dose 0.6 mpk)	Average % V5 positive cells/total cells (respiratory epithelium [3]; Rat Bronchi (left and right lung), lung dose 1.1 mpk)	Average % V5 positive cells/total cells (respiratory epithelium [3]; Rat Nasal Cavity, lung dose 0.4 mpk)	Average % V5 positive cells/total cells (respiratory epithelium [3]; Rat Nasal Cavity, lung dose 0.6 mpk)	Average % V5 positive cells/total cells (respiratory epithelium [3]; Rat Nasal Cavity, lung dose 1.1 mpk)	Average % V5 positive cells/total cells (respiratory epithelium [3]; Rat Trachea, lung dose 0.4 mpk)	Average % V5 positive cells/total cells (respiratory epithelium [3]; Rat Trachea, lung dose 0.6 mpk)	Average % V5 positive cells/total cells (respiratory epithelium [3]; Rat Trachea, lung dose 1.1 mpk)	Average protein expression per cell (RLU per cell) (HeLa cells)
CC(C)CCC[C@@H](C)[C@H]1CC[C@H]2[C@@H]3CC=C4C[C@@H](OC(=O)N(CCCN)CCCCNCCCN)CC[C@]4(C)[C@H]3CC[C@]12C [SA3, (3S,8S,9S,10R,13R,14S,17R)-10,13-dimethyl-17-((R)-6-methylheptan-2-yl)-2,3,4,7,8,9,10,11,12,13,14,15,16,17-tetradecahydro-1H-cyclopenta[a]phenanthren-3-yl (3-aminopropyl)(4-((3-aminopropyl)amino)butyl)carbamate, trihydrochloride salt]	9.33%	40.7%	4.95%	2.97%	0.13%	0.13%	0.46%	0.64%	1.20%	2.84%	0.29%	0.16%	0.65%	–
CC(C)CCC[C@@H](C)[C@H]1CC[C@H]2[C@@H]3CC=C4C[C@@H](OC(=O)NCCNC(=N)N)CC[C@]4(C)[C@H]3CC[C@]12C [SA23, (3S,8S,9S,10R,13R,14S,17R)-10,13-dimethyl-17-((R)-6-methylheptan-2-yl)-2,3,4,7,8,9,10,11,12,13,14,15,16,17-tetradecahydro-1H-cyclopenta[a]phenanthren-3-yl (2-guanidinoethyl)carbamate, hydrochloride salt]	0.98%	0.8%	1.38%	0.83%	–	–	–	–	–	–	–	–	–	868.8 RLU per cell

From patent US20230285310A1, “COMPOSITIONS FOR THE DELIVERY OF PAYLOAD MOLECULES TO AIRWAY EPITHELIUM” (ModernaTX, Inc., priority 2020, published 2023)
